pEC50: −log10 of the molar value.
Each molecule was assayed against T1, human apelin receptor (Homo sapiens, UniProt P35414) (assay: Determination of agonism on the human apelin receptor by a calcium fluorescence assay (FLIPR)). Conditions: HEK293 cells stably transfected with human apelin receptor and Giaq protein, Fluo-4 calcium fluorescence, read-out: EC50 (APJ agonism).
T1 construct: expressed in transfected cells
T1 sequence (P35414 1-380): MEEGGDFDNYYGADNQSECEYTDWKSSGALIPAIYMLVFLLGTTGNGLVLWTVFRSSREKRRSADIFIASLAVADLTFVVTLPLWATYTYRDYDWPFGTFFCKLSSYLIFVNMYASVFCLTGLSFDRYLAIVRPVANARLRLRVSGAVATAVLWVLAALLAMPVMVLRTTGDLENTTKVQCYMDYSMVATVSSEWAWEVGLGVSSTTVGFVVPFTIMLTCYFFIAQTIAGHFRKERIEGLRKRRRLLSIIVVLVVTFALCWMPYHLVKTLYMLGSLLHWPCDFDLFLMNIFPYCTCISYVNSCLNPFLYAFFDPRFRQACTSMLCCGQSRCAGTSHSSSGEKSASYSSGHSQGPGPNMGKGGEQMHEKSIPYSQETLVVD
Assay type: cell-based
In short: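 Agonist EC50s come from peak intracellular calcium transients recorded by FLIPR Tetra, scaled to the 1 μM apelin-13 maximum per plate. Test system: HEK293 stably transfected with human apelin receptor plus Giaq, Fluo-4-loaded (4 μM, 1 h, 37 °C, pH 7.4 buffer with probenecid); ≥7 concentrations, triplicates.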

SMILES	pEC50
CCC(CC)n1c(Cc2cccs2)nc2cc(C(=O)N[C@@H](CC(C)C)C(=O)NCCC3CCOCC3)ccc21 [Example 382, 1-(1-Ethyl-propyl)-2-thiophen-2-ylmethyl-1H-benzoimidazole-5-carboxylic acid {(S)-3-methyl-1-[2-(tetrahydro-pyran-4-yl)-ethylcarbamoyl]-butyl}-amide]	5.45
CCC(CC)n1c(Cc2cccs2)nc2cc(C(=O)N[C@@H](CC(C)C)C(=O)N3CCC[C@H]3COC)ccc21 [Example 384, 1-(1-Ethyl-propyl)-2-thiophen-2-ylmethyl-1H-benzoimidazole-5-carboxylic acid [(S)-1-((S)-2-methoxymethyl-pyrrolidine-1-carbonyl)-3-methyl-butyl]-amide]	5.79
CCC(CC)n1c(Cc2cccs2)nc2cc(C(=O)N[C@@H](CC(C)C)C(=O)NCC3CCCCO3)ccc21 (stereo partly drawn) [Example 386, 1-(1-Ethyl-propyl)-2-thiophen-2-ylmethyl-1H-benzoimidazole-5-carboxylic acid {(S)-3-methyl-1-[(tetrahydro-pyran-2-ylmethyl)-carbamoyl]-butyl}-amide]	5.65
CCC(CC)n1c(Cc2cccs2)nc2cc(C(=O)N[C@@H](CC(C)C)C(=O)N(C)CC3CCCO3)ccc21 (stereo partly drawn) [Example 387, 1-(1-Ethyl-propyl)-2-thiophen-2-ylmethyl-1H-benzoimidazole-5-carboxylic acid {(S)-3-methyl-1-[methyl-(tetrahydro-furan-2-ylmethyl)-carbamoyl]-butyl}-amide]	5.94
CCC(CC)n1c(Cc2cccs2)nc2cc(C(=O)N[C@@H](CC(C)C)C(=O)N3CC[C@H](OCc4ccccc4)C3)ccc21 [Example 390, 1-(1-Ethyl-propyl)-2-thiophen-2-ylmethyl-1H-benzoimidazole-5-carboxylic acid [(S)-1-((S)-3-benzyloxy-pyrrolidine-1-carbonyl)-3-methyl-butyl]-amide]	4.96
CCC(CC)n1c(Cc2cccs2)nc2cc(C(=O)N[C@@H](CC(C)C)C(=O)N(C)CCCC3CCCO3)ccc21 (stereo partly drawn) [Example 392, 1-(1-Ethyl-propyl)-2-thiophen-2-ylmethyl-1H-benzoimidazole-5-carboxylic acid ((S)-3-methyl-1-{methyl-[3-(tetrahydro-furan-2-yl)-propyl]-carbamoyl}-butyl)-amide]	5.86

Second part, the molecule after the results:

pEC50	SMILES
5.67	CCOCCNC(=O)[C@H](CC(C)C)NC(=O)c1ccc2c(c1)nc(Cc1cccs1)n2C(CC)CC [Example 383, 1-(1-Ethyl-propyl)-2-thiophen-2-ylmethyl-1H-benzoimidazole-5-carboxylic acid [(S)-1-(2-ethoxy-ethylcarbamoyl)-3-methyl-butyl]-amide]
5.60	CCCOCCNC(=O)[C@H](CC(C)C)NC(=O)c1ccc2c(c1)nc(Cc1cccs1)n2C(CC)CC [Example 385, 1-(1-Ethyl-propyl)-2-thiophen-2-ylmethyl-1H-benzoimidazole-5-carboxylic acid [(S)-3-methyl-1-(2-propoxy-ethylcarbamoyl)-butyl]-amide]
5.80	CCC(CC)n1c(Cc2cccs2)nc2cc(C(=O)N[C@@H](CC(C)C)C(=O)NCCCOCC3CCCO3)ccc21 (stereo partly drawn) [Example 388, 1-(1-Ethyl-propyl)-2-thiophen-2-ylmethyl-1H-benzoimidazole-5-carboxylic acid {(S)-3-methyl-1-[3-(tetrahydro-furan-2-ylmethoxy)-propylcarbamoyl]-butyl}-amide]
4.77	CCC(CC)n1c(Cc2cccs2)nc2cc(C(=O)N[C@@H](CC(C)C)C(=O)NCCCOCc3ccccc3)ccc21 [Example 389, 1-(1-Ethyl-propyl)-2-thiophen-2-ylmethyl-1H-benzoimidazole-5-carboxylic acid [(S)-1-(3-benzyloxy-propylcarbamoyl)-3-methyl-butyl]-amide]
5.66	CCC(CC)n1c(Cc2cccs2)nc2cc(C(=O)N[C@@H](CC(C)C)C(=O)NCCCOCC3CC3)ccc21 [Example 391, 1-(1-Ethyl-propyl)-2-thiophen-2-ylmethyl-1H-benzoimidazole-5-carboxylic acid [(S)-1-(3-cyclopropylmethoxy-propylcarbamoyl)-3-methyl-butyl]-amide]
